The results in this text go back to ChEMBL document CHEMBL1155239, “Structure-guided development of selective TbcatB inhibitors” (J Med Chem, 2009).

Experiment [1] is described as follows: Inhibition of Trypanosoma brucei cathepsin B expressed in Pichia pastoris.
The target in experiment [2] is Rhodesain (Trypanosoma brucei rhodesiense, UniProt Q95PM0). The experiment in a line: Inhibition of Trypanosoma brucei rhodesiense rhodesain.
Experiment [3] concerns the target Procathepsin L (Homo sapiens, UniProt P07711). The experiment in a line: Inhibition of human liver cathepsin L.
Experiment [4] deals with Cathepsin B (Homo sapiens, UniProt P07858). The experiment in a line: Inhibition of human liver cathepsin B.
For experiment [5], the system named is Trypanosoma brucei. The experiment in a line: Antitrypanosomal activity against Trypanosoma brucei after 48 hrs. Type of experiment: functional, organism-based.
For experiment [6], the system named is BJ. The experiment in a line: Cytotoxicity against human BJ cells after 72 hrs by alamar blue assay. Type of experiment: ADME, cell-based. For orientation: Alamar Blue is a resazurin reagent that responds to reducing activity.
The test system of experiment [7] is Raji. Put plainly: Cytotoxicity against human Raji cells after 72 hrs by alamar blue assay. Type of experiment: ADME, cell-based.
For experiment [8], the system named is HepG2. Put plainly: Cytotoxicity against human HepG2 cells after 72 hrs by alamar blue assay. Type of experiment: ADME, cell-based. The conditions noted are these: HepG2, 72 h.
The test system of experiment [9] is HEK293. Put plainly: Cytotoxicity against human HEK293 cells after 72 hrs by alamar blue assay. Type of experiment: ADME, cell-based. To be noted: HEK293, 72 h.

Chain of Procathepsin L (P07711 whole entry): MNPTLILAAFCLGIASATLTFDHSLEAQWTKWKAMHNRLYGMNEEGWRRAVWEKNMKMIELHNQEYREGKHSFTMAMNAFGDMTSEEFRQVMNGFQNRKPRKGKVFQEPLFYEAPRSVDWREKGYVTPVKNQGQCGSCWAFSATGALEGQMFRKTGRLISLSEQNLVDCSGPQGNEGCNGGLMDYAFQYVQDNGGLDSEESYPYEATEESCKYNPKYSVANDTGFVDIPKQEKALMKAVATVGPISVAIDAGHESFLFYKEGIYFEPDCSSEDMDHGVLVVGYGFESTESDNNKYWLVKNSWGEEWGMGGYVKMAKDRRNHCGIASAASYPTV
Chain of Rhodesain (Q95PM0 whole entry): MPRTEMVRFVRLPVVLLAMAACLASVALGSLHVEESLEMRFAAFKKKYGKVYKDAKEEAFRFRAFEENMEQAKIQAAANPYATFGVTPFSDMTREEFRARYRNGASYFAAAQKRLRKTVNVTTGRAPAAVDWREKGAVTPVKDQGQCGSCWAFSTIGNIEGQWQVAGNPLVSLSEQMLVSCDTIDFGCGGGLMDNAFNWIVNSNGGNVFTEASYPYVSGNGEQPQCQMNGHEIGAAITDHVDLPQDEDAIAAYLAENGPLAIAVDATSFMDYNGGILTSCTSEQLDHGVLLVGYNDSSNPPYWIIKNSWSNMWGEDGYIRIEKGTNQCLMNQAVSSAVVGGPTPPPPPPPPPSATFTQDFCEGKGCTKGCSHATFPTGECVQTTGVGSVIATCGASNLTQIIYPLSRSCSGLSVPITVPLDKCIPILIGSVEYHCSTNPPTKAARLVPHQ

The term IC50 denotes the concentration that gives 50% inhibition. Read a low IC50 as greater potency. For orientation: EC50 means the concentration giving half of the maximal effect. Read a high EC50 as lower potency in that assay. Take `N#Cc1nc(NCc2cccc(-c3cn(S(=O)(=O)c4ccccc4)c4ccccc34)c2)c2ncn(CCCO)c2n1`: the IC50 in experiment [1] is greater than 15 µM; in experiment [2], 2 µM; in [3], 1 µM; in experiment [4], greater than 50 µM. The EC50 in experiment [5] was 2 µM; in [6] it was greater than 10 µM; in [7] it was greater than 10 µM; in experiment [8], greater than 10 µM; in experiment [9], greater than 10 µM.
